IC50 data for one compound are collected here from patent US20230090742A1, “AMINOPYRIMIDINYLAMINOBENZONITRILE DERIVATIVES AS NEK2 INHIBITORS” (Sumitomo Pharma Oncology, Inc., priority 2020, published 2023).

Each structure is given as a SMILES string. Where only a bound is given, the exact number is not on record here.

One assay concerns EZH2 expression. In words: Flow cytometry analysis for EZH2 expression in SW480 cells. It counts as cell-based. The settings on record: Homo sapiens, 24 hours treatment, 0-1000 nM, haploid and diploid cells, read-out: dose dependent decrease in EZH2 expression, IC50. How it is done: Reagents. MDA-MB-231 (Breast adenocarcinoma, triple negative breast cancer) and SW480 (colorectal adenocarcinoma, stem-like subtype) cells were purchased from ATCC and cultured as per manufacturer's instruction. Thymidine (Sigma, T9250) stock solution (100 mM) was prepared in PBS. 2′-Deoxycytidine (Sigma, D897) stock solution (240 mM) was prepared in distilled H2O. Nocodazole (Selleck Chemicals, S2775) stock solution (5 mg/mL) was made in dimethyl sulfoxide (DMSO). FxCycle Far Red stain (F10348) for cell cycle analysis was purchased from Thermo Fisher Scientific.
Antibodies. Polyclonal antibodies to phosphorylated-Ser55 Hec1 (PA5-85846; 1:1000) were purchased from ThermoFisher Scientific, and Phospho-Thr320 PP1α (2581S; 1:1000) and Total PP1α (2582S; 1:1000) were purchased from Cell Signaling Technologies. Monoclonal antibodies to Phospho-Ser10 Histone H3 (53348S; 1:1000), Total Histone H3 (14269; 1:5000), and EZH2-FITC (30233, 1:50) antibodies were purchased from Cell Signaling Technologies; Total Hec1 (ab109496; 1:10000) was purchased from Abcam; and Total NEK2 (sc-55601; 1:200) and GAPDH (sc-365062; 1:1000-2000) antibodies were purchased from Santa Cruz Technologies.
Flow Cytometry Analysis. […] A minimum of 100,000 events were analyzed in each sample, and the results were evaluated using FlowJo software. […]

For another assay, the target named is T1, NEK2 (Homo sapiens, UniProt P51955).
T1 construct: expressed in transfected cells; host or cells: HEK293
T1 sequence (P51955 1-445): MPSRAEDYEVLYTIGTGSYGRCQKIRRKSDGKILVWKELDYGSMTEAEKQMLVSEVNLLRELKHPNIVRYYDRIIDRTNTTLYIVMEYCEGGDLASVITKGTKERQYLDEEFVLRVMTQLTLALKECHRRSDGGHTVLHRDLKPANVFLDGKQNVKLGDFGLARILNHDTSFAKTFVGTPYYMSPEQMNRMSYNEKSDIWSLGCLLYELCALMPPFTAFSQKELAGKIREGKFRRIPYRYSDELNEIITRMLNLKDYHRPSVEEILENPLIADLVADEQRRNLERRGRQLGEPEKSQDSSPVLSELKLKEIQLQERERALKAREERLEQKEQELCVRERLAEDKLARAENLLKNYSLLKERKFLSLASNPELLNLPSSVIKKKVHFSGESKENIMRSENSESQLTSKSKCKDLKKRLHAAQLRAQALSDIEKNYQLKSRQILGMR
In words: NanoBRET Target Engagement Intracellular Kinase Assay for NEK2 in transfected HEK293 cells. It counts as cell-based. The settings on record: NEK2 target engagement, read-out: NanoBRET IC50. How it is done: In this example, the compounds described herein were tested for their inhibitory activity against NEK2 using a model of in vivo activity by the NanoBRET™ Target Engagement Intracellular Kinase Assay (Reaction Biology Corp.). The assay was performed according to the manufacturer's protocol, as detailed below.
HEK293 cells were cultivated (70-80% confluence) prior to the assay. The sample was trypsinized and HEK293 cells were collected.
To prepare lipid: DNA complexes, a 10 μg/ml solution of DNA in Opti-MEM without serum was prepared that consisted of the following ratios of carrier DNA and DNA encoding NanoLuc® fusion: 9.0 μg/ml of Transfection Carrier DNA, 1.0 μg/ml of NanoLuc fusion vector DNA and 1 ml of Opti-MEM without phenol red. The solution was mixed thoroughly. 30 μl of FuGENE HD Transfection Reagent was added into each milliliter of DNA mixture to form lipid: DNA complex. The sample was mixed by inversion 10 times and then incubated at ambient temperature for 20 minutes to allow complexes to form. In a sterile, conical tube, 1 part of lipid:DNA complex was mixed with 20 parts of HEK293 cells in suspension. The resulting sample was mixed gently by inversion 5 times. The cell and lipid: DNA complex was dispensed into a sterile tissue culture dish and incubated for 22-24 hours.
Each test compound is delivered from the compound source plate to the wells of 384-well white NBS plate by Echo 550.
Step 3. Preparation of Cells with NanoBRET™ Tracer K5 Reagent:
The medium was removed from the dish with the transfected HEK293 cells via aspiration, trypsinized and cells were allowed to dissociate from the dish. Trypsin was neutralized using medium containing serum and centrifuged at 200×g for 5 minutes to pellet the cells. The cell density was adjusted to 2×10^5 cells/ml in Opti-MEM without phenol red.
The Complete 20× NanoBRET™ Tracer K5 Reagent with Tracer Dilution Buffer was prepared according to the manufacturer's instructions. One part of Complete 20× NanoBRET™ Tracer Reagent was added to 20 parts of cells in the tube. The sample was mixed gently by inversion 10 times. Next, the cell suspension was dispensed into white, 384-well NBS plates with a final tracer K5 concentration of 2 μM. The plate was incubated at 37° C., 5% CO2 for 1 hour. A separate set of samples without tracer were prepared for background correction steps.
The plate was removed from the incubator and equilibrated to room temperature for 15 minutes. The 3× Complete Substrate plus Inhibitor Solution in Assay Medium (Opti-MEMR I Reduced Serum Medium, no phenol red) was prepared just before measuring BRET. The 3× Complete Substrate plus Inhibitor Solution was added to each well of the 384-well plate and incubated for 2-3 minutes at room temperature. The donor emission wavelength (460 nm) and acceptor emission wavelength (600 nm) were measured using the Envision 2104 plate reader.
To generate raw BRET ratio values, the acceptor emission value (600 nm) was divided by the donor emission value (460 nm) for each sample. To correct for background, the BRET ratio in the absence of tracer (average of no-tracer control samples) was subtracted from the BRET ratio of each sample.
BRET Ratio=[(Acceptor sample÷Donor sample)−(Acceptor no-tracer control÷Donor no-tracer control)]

Take `N#Cc1c(Nc2nc(Nc3ccc(N4CCNCC4)cc3)ncc2Cl)cccc1OCc1ccccc1F` [Compound 16, 2-((5-chloro-2-((4-(piperazin-1-yl)phenyl)amino)pyrimidin-4-yl)amino)-6-((2-fluorobenzyl)oxy)benzonitrile]: the IC50 with EZH2 expression was 184 nM; on NEK2 it was at most 50 nM.
